From paper PMC8044163, “Vitamin D and lumisterol derivatives can act on liver X receptors (LXRs)” (Scientific Reports, 2021)

Test system: murine dermal fibroblasts
Test: RNA-Seq of newborn murine dermal fibroblasts
Format: cell-based, mouse
Conditions: 10^−7 M, 24 h
Description: All animal studies followed guidelines outlined by the NIH Guide for the Care and Use of Laboratory Animals and protocols were approved by the Institutional Animal Care and Use Committee at the NIEHS or the UAB. […] Skin samples from newborn C57BL/6 mice were collected at the NIEHS. Dermal fibroblasts were isolated from the skin of newborn mice, 1–2 day old. Briefly, we followed the protocols described previously. The skin was washed in PBS, cut into smaller pieces and incubated in 2.4 U/ml of dispase II (Roche) overnight at 4 °C. The dermis was separated from the epidermis and incubated in 0.1% collagenase (Roche) at 4 °C overnight. […] Single cell suspension was prepared by pipetting and draining through a cell strainer. After centrifugation, cell pellets were suspended in DMEM medium containing 10% charcoal-stripped fetal bovine serum (cFBS), mouse fibroblasts growth factor (FGF) and 1% antibiotic, and inoculated into tissue culture dishes (Midwest Scientific, TPP). Cells, in early passages, from different mice were pooled together to provide representative samples for experiments. Fibroblasts were cultured in Petri dishes (10 cm in diameter) in DMEM and 10% cFBS and triplicate semi-confluent cultures were treated as described.
Triplicate cultures of murine fibroblasts were used for RNA isolation (RNAeasy Micro kit, Qiagen), the RNA samples were combined for each condition and at least 200 ng of RNA for each sample was used to create libraries for RNA sequencing by BGI Americas Corporation Service (Cambridge, MA)[67]. Quality of RNA and its concentration were determined using Agilent 2100.
The raw sequence FASTQ files were aligned to Gencode’s GRCm38 p4 Release M11 genome using STAR version 2.5.4b (parameters used: –outReadsUnmapped Fastx; –outSAMtype BAM SortedByCoordinate; –outSAMattributes All; –outFilterIntronMotifs RemoveNoncanonicalUnannotated)[69]. The abundance of transcripts was calculated from the alignments using Cufflinks version 2.2.1 (parameters used: –G; –L; –library-type fr-firststrand). Samples were merged using default parameters with Cuffmerge[70],[71]. The differential expression was calculated using Cuffdiff’s default parameters. The raw data have been deposited at the NCBI GEO (GSE145818).

C=C1C(=CC=C2CCCC3(C)C2CCC3C(C)(O)CC(O)CC(C)C)CC(O)CC1O (stereo not shown) [1,20,23(OH)3D3]
Adh7 expression level: 1.313 | Adh7 log2(fold_change) vs control: 2.36 | Aqp11 expression level: 0.9394 | Aqp11 log2(fold_change) vs control: 2.077 | Arid3b expression level: 0.6082 | Arid3b log2(fold_change) vs control: -2.478 | Bicd1 expression level: 0.7058 | Bicd1 log2(fold_change) vs control: -1.592 | Btc expression level: 1.117 | Btc log2(fold_change) vs control: 2.211 | Car9 expression level: 2.818 | Car9 log2(fold_change) vs control: -1.732 | Cbs expression level: 0.2989 | Cbs log2(fold_change) vs control: -2.697 | Ccl4 expression level: 0.3377 | Ccl4 log2(fold_change) vs control: -1.322 | Cd68 expression level: 3.541 | Cd68 log2(fold_change) vs control: 1.639 | Cd200 expression level: 0.5777 | Cd200 log2(fold_change) vs control: -1.286 | Cherp expression level: 32.7784 | Cherp log2(fold_change) vs control: -2.489 | Clec2g expression level: 0 | Clec2g log2(fold_change) vs control: -inf | Cnnm4 expression level: 4.2236 | Cnnm4 log2(fold_change) vs control: -3.566 | Cox15 expression level: 15.6597 | Cox15 log2(fold_change) vs control: 1.429 | Cpa2 expression level: 0.3128 | Cpa2 log2(fold_change) vs control: -2.322 | Ctrl expression level: 0.34 | Ctrl log2(fold_change) vs control: -1.578 | Dcun1d1 expression level: 4.162 | Dcun1d1 log2(fold_change) vs control: -1.661 | Defb42 expression level: 0.2203 | Defb42 log2(fold_change) vs control: -2.046 | Dtx1 expression level: 0.142 | Dtx1 log2(fold_change) vs control: -3.544 | Ehf expression level: 0.2985 | Ehf log2(fold_change) vs control: -1.4739 | Ercc2 expression level: 13.9366 | Ercc2 log2(fold_change) vs control: -3.6 | Erh expression level: 2.618 | Erh log2(fold_change) vs control: -1.258 | Fmnl1 expression level: 0.2192 | Fmnl1 log2(fold_change) vs control: -2.084 | Gys2 expression level: 0 | Gys2 log2(fold_change) vs control: -inf | Hist1h2ab expression level: 1.43 | Hist1h2ab log2(fold_change) vs control: 2.322 | Hist1h2bg expression level: 0 | Hist1h2bg log2(fold_change) vs control: -inf | Hist1h2bh expression level: 0 | Hist1h2bh log2(fold_change) vs control: -inf | Hist1h4c expression level: 0.4025 | Hist1h4c log2(fold_change) vs control: -1 | Isl1 expression level: 0.3246 | Isl1 log2(fold_change) vs control: -1.301 | Krt19 expression level: 10.3867 | Krt19 log2(fold_change) vs control: 1.043 | Larp1b expression level: 6.304 | Lhx6 expression level: 2.879 | Lhx6 log2(fold_change) vs control: -2.012 | Lsm5 expression level: 1.269 | Lsm5 log2(fold_change) vs control: -1.065 | M1ap expression level: 2.14 | M1ap log2(fold_change) vs control: 1.796 | Med9os expression level: 0.7829 | Med9os log2(fold_change) vs control: -1.4 | Nckipsd expression level: 23.2533 | Nckipsd log2(fold_change) vs control: 2.486 | Nr3c2 expression level: 0.0668 | Nr3c2 log2(fold_change) vs control: -4.037 | Nr6a1 expression level: 0.2068 | Nr6a1 log2(fold_change) vs control: -3.152 | Ntrk3 expression level: 0.4025 | Ntrk3 log2(fold_change) vs control: -2.2019 | Parvg expression level: 0.1595 | Parvg log2(fold_change) vs control: -3.209 | Pde4dip expression level: 24.1833 | Pde4dip log2(fold_change) vs control: -7.338 | Psd4 expression level: 0.1018 | Psd4 log2(fold_change) vs control: -3.94 | Ptpa expression level: 214.561 | Ptpa log2(fold_change) vs control: 1.701 | Ptpn6 expression level: 3.903 | Ptpn6 log2(fold_change) vs control: -1.613 | Rnu3a expression level: 0 | Rnu3a log2(fold_change) vs control: -inf | Rpph1 expression level: 0.6553 | Rpph1 log2(fold_change) vs control: -1 | Rsad1 expression level: 1.419 | Rsad1 log2(fold_change) vs control: -1.14 | Saa1 expression level: 0.1901 | Saa1 log2(fold_change) vs control: -2.322 | Samd12 expression level: 0.2728 | Samd12 log2(fold_change) vs control: -3.717 | Scn8a expression level: 0.1998 | Scn8a log2(fold_change) vs control: -2 | Sgca expression level: 0.5689 | Sgca log2(fold_change) vs control: -1.112 | Slc15a4 expression level: 13.3996 | Slc15a4 log2(fold_change) vs control: -2.086 | Slc16a5 expression level: 0.07215 | Slc16a5 log2(fold_change) vs control: -3.671 | Snhg9 expression level: 3.722 | Snhg9 log2(fold_change) vs control: -2.322 | St7 expression level: 24.6198 | St7 log2(fold_change) vs control: -1.48 | Stmn1 expression level: 5.272 | Stmn1 log2(fold_change) vs control: 1.77 | Susd1 expression level: 2.296 | Susd1 log2(fold_change) vs control: 1.732 | Syt8 expression level: 0.5148 | Syt8 log2(fold_change) vs control: -2.627 | Syt12 expression level: 0.9828 | Syt12 log2(fold_change) vs control: -2.055 | Tldc2 expression level: 0 | Tldc2 log2(fold_change) vs control: -inf | Tnnc2 expression level: 0.3105 | Tnnc2 log2(fold_change) vs control: -1.361 | Unc5c expression level: 0.4569 | Unc5c log2(fold_change) vs control: -1.248 | Wdr17 expression level: 0.2366 | Wdr17 log2(fold_change) vs control: -3.241 | Zbtb18 expression level: 4.229 | Zbtb18 log2(fold_change) vs control: -3.388 | Zfp618 expression level: 1.3488 | Zfp618 log2(fold_change) vs control: -1.817 | number of genes downregulated, FC ≥ 2: 520 | number of genes upregulated, FC ≥ 2: 531 | number of genes solely downregulated (FC ≥ 2): 113 (10.7%) | number of genes solely upregulated (FC ≥ 2): 256 (17%)
